Assays:
[1] = Body weight and tolerability of A549 and H292 xenograft mice; type: in vivo; conditions: diplatin 120 mg/kg; CBP 60 mg/kg; every 3 days i.v.
Description: Cells in logarithmic growth were washed with PBS and suspended in serum-free medium. Portions of the suspension (5 × 10^6 cells in 0.1 ml/mouse) were mixed at a 3:1 ratio with Matrigel basement membrane matrix and injected subcutaneously into the mice. Following 2 weeks of growth, tumor tissues were cut into multiple 2 × 2 × 2 mm^3 pieces and implanted using a range trocar subcutaneously (s.c. injection) into the left forepaw armpit of each mouse ([Jiang et al., 2017]). Treatment with pharmacology was started when the tumors reached an average volume of 100–200 mm^3. The mice were randomly divided into six groups (n = 14/group).
Body weight and tumor size were assessed every 3 days. Tumor size was measured using a caliper, the volumes were calculated according to the following standard formula: V = (L × W^2)/2 (V = tumor volume, L = largest diameter of tumor, W = smallest diameter of tumor). On day 25, all mice were sacrificed by cervical dislocation, and the tumors were removed and weighed.

H292 tumors = experiment: TUNEL assay of H292 xenograft tumor sections; type: in vivo, mice; conditions: diplatin 120 mg/kg, DDP 6 mg/kg, CBP 60 mg/kg
Description: (§1) Tumor tissues were fixed in 10% formalin for 4 h and then embedded in paraffin. Five-micrometer-thick sections were sliced and stained for apoptotic cells with TUNEL assay kit in accordance with manufacturer instructions (KGI Biotechnology Company, Nanjing, China). A positive result was marked by brown staining in the cell nucleus. Cell images were acquired through a microscope (Olympus BX 51, Japan). The apoptotic index (AI) was determined as a percentage of apoptotic cells from at least 1,000 cells in each mouse.

Calu-3 = experiment: MTT cell viability assay, Calu-3; type: cell-based, human; conditions: 48 h
Description: (§2) Cells were seeded at a density of 1 × 10^4 cells per well in 96-well plates. The following day, these cells were washed with PBS and exposed to different concentrations of testing compounds in culture medium for 48 h. MTT solution (10 μl at 5 mg/ml) was added to each well. After 4 h of incubation at 37°C, the medium was removed, and the insoluble precipitate was dissolved in 100 μl DMSO (Sigma, St. Louis, MO, USA). The absorbance of the dissolved solution at 490 nm was measured using a microplate reader (TECAN A-5082; Megllan, Austria). Cell viability percentages were calculated by dividing the mean optical density (OD) of compound-containing wells by that of the control wells. Each experiment was replicated three times. The IC50 of testing drugs was calculated with Statistical Product and Service Solutions software (SPSS, version 16.0).

H1299 = experiment: MTT cell viability assay, H1299; type: cell-based, human; conditions: 48 h
Description: as §2

normal ICR mice = experiment: LD50 in normal ICR mice; type: in vivo; conditions: tail vein injection
Description: (§3) After injection, the animals’ condition was monitored every day for over 1 week by an observer who was blinded to the dose and drug allocation.
(§4) Estimates for ED50 and LD50 were calculated through nonlinear regression, data were fitted to a sigmoidal dose-response relationship in Prism (version 4.0a; GraphPad Software, Inc., San Diego, CA). The data were fitted to the equation:
(§5) Y=Ymin+Ymax−Ymin/1+10^(LogED50−X)∗HillSlope
(§6) where X is the logarithm of concentration, and Y is the response.

[2] = tested on: peripheral blood cell count; experiment: Peripheral blood cell count of treated xenograft mice; type: in vivo; conditions: diplatin 120 mg/kg; DDP 6 mg/kg; CBP 60 mg/kg
H460 = experiment: MTT cell viability assay, H460; type: cell-based, human; conditions: 48 h
Description: as §2

HCC827 = experiment: MTT cell viability assay, HCC827; type: cell-based, human; conditions: 48 h
Description: as §2

[3] = Splenic index (spleen weight-to-body weight ratio); type: in vivo, mice; conditions: diplatin 30, 60, 120 mg/kg; DDP 6 mg/kg; CBP 60 mg/kg
A549 cells = experiment: Cell cycle by PI flow cytometry, A549; type: cell-based, human; conditions: diplatin 50 μM, DDP 5 μM, CBP 100 μM
Description: (§7) Then, the cells were trypsinized, washed with PBS, and fixed in 1.5 ml 95% ethanol and left at 4°C overnight. They were then incubated with RNase and stained with propidium iodide (PI) (Multi Sciences Biotech Co., Ltd). PI absorbance was determined using a Cytomics FC500 Flow Cytometer (Beckman Coulter, USA).

A549/DDP = experiment: MTT cell viability assay, A549/DDP; type: cell-based, human; conditions: A549/DDP (DDP-resistant), 48 h
Description: as §2

H1650 = experiment: MTT cell viability assay, H1650; type: cell-based, human; conditions: 48 h
Description: as §2

LTEP-A-2 cells = experiment: Cell cycle by PI flow cytometry, LTEP-A-2; type: cell-based, human; conditions: diplatin 50 µM, DDP 5 µM, CBP 100 µM
Description: as §7

[4] = tested on: bone marrow karyocyte count; experiment: Bone marrow karyocyte count; type: in vivo, mice
H292 = experiment: MTT cell viability assay, H292; type: cell-based, human; conditions: 48 h
Description: as §2

[5] = tested on: JNK, Erk1/2 and p38 phosphorylation in A549 and H292 cells; experiment: Western blot of MAPK phosphorylation (JNK, Erk1/2, p38); type: cell-based, human; conditions: for Erk1/2 and p38 phosphorylation: diplatin 10, 25, 50 μM, DDP 5 μM, CBP 100 μM
Description: (§8) Cells were treated with diplatin, DDP, and CBP before being lysed. After centrifugation at 12,000 rpm for 10 min, an equal amount of protein from each group was subjected to electrophoresis on 10% SDS-PAGE gels. The proteins in the gel were then electroblotted onto polyvinylidene fluoride (PVDF) membranes (Millipore, Massachusetts, USA). After incubation in the blocking buffer (1× TBS, 0.1% Tween-20, and 5% w/v dry nonfat milk) for 1 h at room temperature, the membranes were incubated with the primary antibody at 4°C overnight. Next, membranes were rinsed with TBST, and then secondary antibodies were applied (LI-COR, USA) at room temperature for 1 h. Immunoreactive bands were visualized by a two-color infrared imaging system (Odyssey, LI-COR, USA).

H292 cells = experiment: Cell cycle by PI flow cytometry, H292; type: cell-based, human; conditions: diplatin 50 μM, DDP 5 μM, CBP 100 μM
Description: as §7

[6] = tested on: A549, NCI-H292, NCI-H460, and LTEP-A-2 xenograft models; experiment: ED50 (50% reduction of xenograft tumor volume) in nude mice; type: in vivo; conditions: dose reducing xenograft tumor volume by 50%; average over A549, NCI-H292, NCI-H460, and LTEP-A-2 xenograft models
Description: as §3, §4, §5, §6

LTEP-A-2 = experiment: MTT cell viability assay, LTEP-A-2; type: cell-based, human; conditions: 48 h
Description: as §2

A549 = experiment: MTT cell viability assay, A549; type: cell-based, human; conditions: 48 h
Description: as §2

A549 tumors = experiment: TUNEL assay of A549 xenograft tumor sections; type: in vivo, mice; conditions: diplatin 120 mg/kg, DDP 6 mg/kg, CBP 60 mg/kg
Description: as §1

H460 cells = experiment: Cell cycle by PI flow cytometry, H460; type: cell-based, human; conditions: diplatin 50 µM, DDP 5 µM, CBP 100 µM
Description: as §7

[7] = tested on: BEAS-2B normal human lung epithelial cell line; experiment: MTT cell viability assay, BEAS-2B; type: cell-based; conditions: BEAS-2B normal lung epithelial cells; MTT; 48 h
Description: as §2

lung tumor cell lines = experiment: MTT cell viability assay, panel of lung tumor cell lines; type: cell-based, human; conditions: 48 h, read-out: IC50 range over the lung tumor cell lines
Description: as §2

[8] = set-up: method as in Moraleja et al., 2018; conditions: rats; ref Moraleja et al., 2018; cited from earlier work
[9] = tested on: p53, Fas, and Bax expressions in A549 and H292 cells; experiment: Western blot of p53, Fas and Bax; type: cell-based, human; conditions: 10 μM SP600125 pretreatment 0.5 h, 25 μM diplatin 48 h
Description: as §8

| SMILES | IC50 (Calu-3) [µM] | IC50 (H1299) [µM] | IC50 (HCC827) [µM] | effect on cell cycle distribution (A549 cells) | IC50 (A549/DDP) [µM] | IC50 (H1650) [µM] | effect on cell cycle distribution (LTEP-A-2 cells) | IC50 (H292) [µM] | Erk1/2 and p38 phosphorylation [5] | effect on cell cycle distribution (H292 cells) | Mice ED50 [6] [mg/kg] | IC50 (LTEP-A-2) [µM] | IC50 (A549) [µM] | effect on cell cycle distribution (H460 cells) | IC50 [7] [µM] | other results |
| --- | --- | --- | --- | --- | --- | --- | --- | --- | --- | --- | --- | --- | --- | --- | --- | --- |
| N.N.O=C([O-])C1(C(=O)[O-])CCC1.[Pt+2] [CBP, carboplatin] | 790 | 274 | 328 | induced cell cycle arrest in S phase | 300 | 209 | induced cell cycle arrest in S phase | 257 | failed to induce Erk1/2 and p38 phosphorylation | induced cell cycle arrest in S phase | 59.5 | 57 | 221 | induced cell cycle arrest in S phase | 461 | reduction of body weight by day 25 [1]: 18.71%; apoptosis (apoptotic index, TUNEL) (H292 tumors): 24.9%; Mice LD50 (normal ICR mice): 150 mg/kg; decrease of peripheral blood cell count [2]: 67.9%; IC50 (H460): 229 µM; splenic index relative to control [3]: no difference relative to control; bone marrow karyocyte count compared with the 120 mg/kg diplatin-treated group ([4]; DDP 6 mg/kg, CBP 60 mg/kg): decreased bone marrow karyocyte count more; apoptosis (apoptotic index, TUNEL) (A549 tumors): 18.5%; IC50 (lung tumor cell lines): 57 to 790 µM |
| N.N.[Cl][Pt][Cl] [DDP, cisplatin] | 33.5 | 18.7 | 14.7 | induced cell cycle arrest in S phase | 151 | 11.6 | induced cell cycle arrest in S phase | 6 | failed to induce Erk1/2 and p38 phosphorylation | induced cell cycle arrest in S phase | 6.0 | 6.2 | 46.7 | induced cell cycle arrest in S phase | 19.3 | Pt accumulation in the kidney compared with the CBP group [8]: approximately five-fold higher; bone marrow karyocyte count compared with the 120 mg/kg diplatin-treated group ([4]; mouse, in vivo): decreased bone marrow karyocyte count more; JNK phosphorylation levels ([5]; diplatin 10–50 μM, DDP 10 μM, 0.5 h): elevated |
| Oc1c2ccccc2c2c3c(cccc13)N=N2 [SP600125] | – | – | – | – | – | – | – | – | – | – | – | – | – | – | – | effect on diplatin-induced p53, Fas, and Bax expression [9]: suppressed |

From publication PMC6749073 (Frontiers in Pharmacology, 2019)
